Organism: Rattus norvegicus
Assay: Open TG-GATES - Regimen: Daily Repeat
Assay type: toxicity, organism-based, Sprague-Dawley
Set-up: regimen Daily Repeat, gender Male, age 6 weeks
Conditions: in vivo, po, 100 mg/kg, route gavage, dose level High; for APTT / Bas / Eos / Fbg / Hb / Ht / Lym / MCH / MCHC / MCV / Mono / Neu / PT / Plat / RBC / Ret / WBC: tissue Blood
[1] = 72 h, tissue Kidney, time 3 day
[2] = 72 h, tissue Plasma, time 3 day

Nc1ccc(Cc2ccc(N)cc2)cc1
TERMINAL_BW (72 h, time 3 day): 208.1 g
APTT (72 h, time 3 day): 17.9 s
Bas (72 h, time 3 day): 0.6%
Eos (72 h, time 3 day): 1%
Fbg (72 h, time 3 day): 405.8 mg/dL
Hb (72 h, time 3 day): 12.8 g/dL
Ht (72 h, time 3 day): 35.9%
Lym (72 h, time 3 day): 66.8%
MCH (72 h, time 3 day): 19.9 pg
MCHC (72 h, time 3 day): 35.8%
MCV (72 h, time 3 day): 55.5 fL
Mono (72 h, time 3 day): 6.2%
Neu (72 h, time 3 day): 25.2%
PT (72 h, time 3 day): 12 s
Plat (72 h, time 3 day): 166 x10_4/uL
RBC (72 h, time 3 day): 646 x10_4/ul
Ret (72 h, time 3 day): 4.3%
WBC (72 h, time 3 day): 223.6 x10_2/uL
KIDNEY_L [1]: 1 g
KIDNEY_R [1]: 1 g
KIDNEY_TOTAL [1]: 2 g
LIVER (72 h, tissue Liver, time 3 day): 11.6 g
A/G [2]: 0.6
ALP [2]: 3437 IU/L
ALT [2]: 290.2 IU/L
AST [2]: 509.2 IU/L
BUN [2]: 12.6 mg/dL
CRE [2]: 0.2 mg/dL
Ca [2]: 11.3 mg/dL
Cl [2]: 103.8 meq/L
DBIL [2]: 1.3 mg/dL
GLC [2]: 145.2 mg/dL
IP [2]: 7.3 mg/dL
K [2]: 4.7 meq/L
LDH [2]: 160.6 IU/L
Na [2]: 141.6 meq/L
PL [2]: 325.8 mg/dL
RALB [2]: 2.3 g/dL
TBIL [2]: 2.7 mg/dL
TC [2]: 221 mg/dL
TG [2]: 69.4 mg/dL
TP [2]: 5.9 g/dL
gamma-GTP [2]: 7.8 IU/L
TERMINAL_BW ([…], time 7 day): 235.7 g
TERMINAL_BW ([…], time 14 day): 264.2 g
TERMINAL_BW ([…], time 28 day): 273.7 g
APTT ([…], time 7 day): 17.6 s
Bas ([…], time 7 day): 0.6%
Eos ([…], time 7 day): 0.6%
Fbg ([…], time 7 day): 273.8 mg/dL
Hb ([…], time 7 day): 12.4 g/dL
Ht ([…], time 7 day): 34.8%
Lym ([…], time 7 day): 66.6%
MCH ([…], time 7 day): 19.7 pg
MCHC ([…], time 7 day): 35.6%
MCV ([…], time 7 day): 55.2 fL
Mono ([…], time 7 day): 5.8%
Neu ([…], time 7 day): 25.8%
PT ([…], time 7 day): 12.5 s
Plat ([…], time 7 day): 193.4 x10_4/uL
RBC ([…], time 7 day): 631 x10_4/ul
Ret ([…], time 7 day): 7.9%
WBC ([…], time 7 day): 238.1 x10_2/uL
APTT ([…], time 14 day): 21.7 s
Bas ([…], time 14 day): 1%
Eos ([…], time 14 day): 1%
Fbg ([…], time 14 day): 292.2 mg/dL
Hb ([…], time 14 day): 11.9 g/dL
Ht ([…], time 14 day): 33.6%
Lym ([…], time 14 day): 69.4%
MCH ([…], time 14 day): 19.8 pg
MCHC ([…], time 14 day): 35.4%
MCV ([…], time 14 day): 56 fL
Mono ([…], time 14 day): 5.6%
Neu ([…], time 14 day): 22.8%
PT ([…], time 14 day): 13 s
Plat ([…], time 14 day): 166.6 x10_4/uL
RBC ([…], time 14 day): 601.8 x10_4/ul
Ret ([…], time 14 day): 8.1%
WBC ([…], time 14 day): 308 x10_2/uL
APTT ([…], time 28 day): 37.8 s
Bas ([…], time 28 day): 0.8%
Eos ([…], time 28 day): 1%
Fbg ([…], time 28 day): 275.8 mg/dL
Hb ([…], time 28 day): 12.1 g/dL
Ht ([…], time 28 day): 33.5%
